Data reported in the supplement of paper PMC10599287.

Columns and labels:
[1] = compound: CCNC(=O)C#Cc1ccc2c(C(=Nc3ccc(CN(C)C)cc3)c3ccccc3)c(O)[nH]c2c1; experiment: absolute IC70 (antiproliferative, propidium iodide); higher = less potent; conditions: exposure time: 4 days
Method: (§1)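 Modified propidium iodide survival/proliferation assay in 294 human tumor cell lines (2D monolayer for solid tumors, suspension for hematologic lines) after 4 days of continuous exposure to 10 concentrations in half-log steps from 0.001 to 30 µM. Absolute IC70 was fitted by four-parameter nonlinear regression of T/C × 100 (%) values; 30 µM is the top dose.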

[2] = compound: O=C(NOCCO)c1ccc2cncn2c1Nc1ccc(I)cc1F [GDC-0623]; experiment: as above; conditions: exposure time: 4 days
Method: as §1

LXFA_526
absolute IC70 [1]: 739 nM | absolute IC70 [2]: 1320 nM

LXFA_586
absolute IC70 [1]: 106 nM | absolute IC70 [2]: > 30000 nM

LXFA_623
absolute IC70 [1]: 960 nM | absolute IC70 [2]: 1010 nM

LXFA_629
absolute IC70 [1]: 750 nM | absolute IC70 [2]: > 30000 nM

LXFA_677
absolute IC70 [1]: 269 nM | absolute IC70 [2]: 168 nM

LXFA_737
absolute IC70 [1]: 225 nM | absolute IC70 [2]: > 30000 nM

LXFA_923
absolute IC70 [1]: 24400 nM | absolute IC70 [2]: > 30000 nM

LXFA_983
absolute IC70 [1]: 202 nM | absolute IC70 [2]: 18500 nM

LXFA_1647
absolute IC70 [1]: 248 nM | absolute IC70 [2]: 221 nM

LXFE_66
absolute IC70 [1]: 3910 nM | absolute IC70 [2]: > 30000 nM

LXFL_529
absolute IC70 [1]: 329 nM | absolute IC70 [2]: 233 nM

LXFL_1072
absolute IC70 [1]: 481 nM | absolute IC70 [2]: 16200 nM

LXFL_1121
absolute IC70 [1]: 743 nM | absolute IC70 [2]: > 30000 nM

LXFL_1674
absolute IC70 [1]: 1050 nM | absolute IC70 [2]: > 30000 nM

M059K
absolute IC70 [1]: 1150 nM | absolute IC70 [2]: > 30000 nM

MAXF_401
absolute IC70 [1]: 28 nM | absolute IC70 [2]: 730 nM

MCF7
absolute IC70 [1]: 281 nM | absolute IC70 [2]: > 30000 nM

MCF 10A
absolute IC70 [1]: 31 nM | absolute IC70 [2]: 48 nM

MDA-MB-231
absolute IC70 [1]: 120 nM | absolute IC70 [2]: 78 nM

MDA-MB-453
absolute IC70 [1]: 2480 nM | absolute IC70 [2]: > 30000 nM

MDA-MB-468
absolute IC70 [1]: 347 nM | absolute IC70 [2]: 2240 nM

MDST8
absolute IC70 [1]: 55.5 nM | absolute IC70 [2]: 6.01 nM

MEC-1
absolute IC70 [1]: 34 nM | absolute IC70 [2]: > 30000 nM

MEG-01
absolute IC70 [1]: 20 nM | absolute IC70 [2]: 8 nM

MEXF_276
absolute IC70 [1]: 38 nM | absolute IC70 [2]: 8 nM

MEXF_394
absolute IC70 [1]: 42 nM | absolute IC70 [2]: 4 nM

MEXF_462
absolute IC70 [1]: 25 nM | absolute IC70 [2]: 7170 nM

MEXF_520
absolute IC70 [1]: 99 nM | absolute IC70 [2]: 5400 nM

MEXF_535
absolute IC70 [1]: 99 nM | absolute IC70 [2]: 5 nM

MEXF_622
absolute IC70 [1]: 227 nM | absolute IC70 [2]: 40 nM

MEXF_1341
absolute IC70 [1]: 482 nM | absolute IC70 [2]: 26 nM

MEXF_1539
absolute IC70 [1]: 39 nM | absolute IC70 [2]: 3 nM

MEXF_1737
absolute IC70 [1]: 48 nM | absolute IC70 [2]: 11 nM

MEXF_1792
absolute IC70 [1]: 462 nM | absolute IC70 [2]: 169 nM

MEXF_1829
absolute IC70 [1]: 90 nM | absolute IC70 [2]: 19 nM

MEXF_2090
absolute IC70 [1]: 93 nM | absolute IC70 [2]: 4 nM

MFE-319
absolute IC70 [1]: 370 nM | absolute IC70 [2]: 5170 nM

MIA-PaCa-2
absolute IC70 [1]: 103 nM | absolute IC70 [2]: 5 nM

MINO
absolute IC70 [1]: 10 nM | absolute IC70 [2]: > 30000 nM

MKN1
absolute IC70 [1]: 289 nM | absolute IC70 [2]: > 30000 nM

MKN7
absolute IC70 [1]: 17500 nM | absolute IC70 [2]: > 30000 nM

MKN45
absolute IC70 [1]: 489 nM | absolute IC70 [2]: 79 nM

MM.1R
absolute IC70 [1]: 23 nM | absolute IC70 [2]: > 30000 nM

MM.1S
absolute IC70 [1]: 9 nM | absolute IC70 [2]: > 30000 nM

MOLM-1
absolute IC70 [1]: 1590 nM | absolute IC70 [2]: > 30000 nM

MOLM-6
absolute IC70 [1]: 9 nM | absolute IC70 [2]: 41 nM

MOLM-13
absolute IC70 [1]: 8 nM | absolute IC70 [2]: 448 nM

MOLP-2
absolute IC70 [1]: 3650 nM | absolute IC70 [2]: > 30000 nM

MOLT-3
absolute IC70 [1]: 6 nM | absolute IC70 [2]: > 30000 nM

MOLT-4
absolute IC70 [1]: 4 nM | absolute IC70 [2]: > 30000 nM

MSTO-211H
absolute IC70 [1]: 494 nM | absolute IC70 [2]: 1480 nM

MV4-11
absolute IC70 [1]: 8 nM | absolute IC70 [2]: 1320 nM

NALM-33
absolute IC70 [1]: 7 nM | absolute IC70 [2]: > 30000 nM

NCI-H69
absolute IC70 [1]: 1340 nM | absolute IC70 [2]: > 30000 nM

NCI-H82
absolute IC70 [1]: 2330 nM | absolute IC70 [2]: > 30000 nM

NCI-H322M
absolute IC70 [1]: 391 nM | absolute IC70 [2]: 105 nM

NCI-H345
absolute IC70 [1]: 11800 nM | absolute IC70 [2]: > 30000 nM

NCI-H441
absolute IC70 [1]: 1340 nM | absolute IC70 [2]: > 30000 nM

NCI-H460
absolute IC70 [1]: 11 nM | absolute IC70 [2]: > 30000 nM

NCI-H522
absolute IC70 [1]: 102 nM | absolute IC70 [2]: 30000 nM

NCI-H727
absolute IC70 [1]: 325 nM | absolute IC70 [2]: 23 nM

NCI-H929
absolute IC70 [1]: 43 nM | absolute IC70 [2]: 10 nM

NCI-H1184
absolute IC70 [1]: 815 nM | absolute IC70 [2]: > 30000 nM

NCI-H1299
absolute IC70 [1]: 1180 nM | absolute IC70 [2]: > 30000 nM

NCI-H1975
absolute IC70 [1]: 409 nM | absolute IC70 [2]: > 30000 nM

NCI-H2171
absolute IC70 [1]: 24 nM | absolute IC70 [2]: > 30000 nM

NOMO-1
absolute IC70 [1]: 10 nM | absolute IC70 [2]: > 30000 nM

NUGC-4
absolute IC70 [1]: 329 nM | absolute IC70 [2]: 8 nM

OCI-AML2
absolute IC70 [1]: 7 nM | absolute IC70 [2]: < 1 nM

OCI-AML3
absolute IC70 [1]: 6 nM | absolute IC70 [2]: < 1 nM

OCI-LY18
absolute IC70 [1]: 494 nM | absolute IC70 [2]: > 30000 nM

OCUM-1
absolute IC70 [1]: 25 nM | absolute IC70 [2]: 11 nM

OE21
absolute IC70 [1]: 2210 nM | absolute IC70 [2]: > 30000 nM

OPM-2
absolute IC70 [1]: 336 nM | absolute IC70 [2]: > 30000 nM

OVCAR-3
absolute IC70 [1]: 26100 nM | absolute IC70 [2]: > 30000 nM

OVCAR-4
absolute IC70 [1]: 4280 nM | absolute IC70 [2]: > 30000 nM

OVCAR-5
absolute IC70 [1]: 694 nM | absolute IC70 [2]: 367 nM

OVCAR-8
absolute IC70 [1]: 2800 nM | absolute IC70 [2]: > 30000 nM

OVXF_899
absolute IC70 [1]: 457 nM | absolute IC70 [2]: 14700 nM

OVXF_1023
absolute IC70 [1]: 14200 nM | absolute IC70 [2]: > 30000 nM

PA-TU-8902
absolute IC70 [1]: 913 nM | absolute IC70 [2]: > 30000 nM

PA-TU-8988T
absolute IC70 [1]: 773 nM | absolute IC70 [2]: > 30000 nM

PANC-1
absolute IC70 [1]: 5080 nM | absolute IC70 [2]: > 30000 nM

PAXF_546
absolute IC70 [1]: 12200 nM | absolute IC70 [2]: > 30000 nM

PAXF_1657
absolute IC70 [1]: 564 nM | absolute IC70 [2]: 260 nM

PAXF_1986
absolute IC70 [1]: 414 nM | absolute IC70 [2]: 92 nM

PAXF_1998
absolute IC70 [1]: 4620 nM | absolute IC70 [2]: > 30000 nM

PAXF_2035
absolute IC70 [1]: 855 nM | absolute IC70 [2]: 17200 nM

PC-3M
absolute IC70 [1]: 161 nM | absolute IC70 [2]: > 30000 nM

PC-9
absolute IC70 [1]: 622 nM | absolute IC70 [2]: > 30000 nM

PL-21
absolute IC70 [1]: 338 nM | absolute IC70 [2]: 365 nM

PXF_698
absolute IC70 [1]: 301 nM | absolute IC70 [2]: > 30000 nM

PXF_1118
absolute IC70 [1]: 1550 nM | absolute IC70 [2]: > 30000 nM

PXF_1752
absolute IC70 [1]: 1860 nM | absolute IC70 [2]: > 30000 nM

RAJI
absolute IC70 [1]: 4790 nM | absolute IC70 [2]: > 30000 nM

RAMOS
absolute IC70 [1]: 507 nM | absolute IC70 [2]: > 30000 nM

RCH-ACV
absolute IC70 [1]: 6 nM | absolute IC70 [2]: > 30000 nM

RD-ES
absolute IC70 [1]: 77 nM | absolute IC70 [2]: > 30000 nM

RH-30
absolute IC70 [1]: 794 nM | absolute IC70 [2]: 24600 nM

RH-41
absolute IC70 [1]: 606 nM | absolute IC70 [2]: > 30000 nM

RKO
absolute IC70 [1]: 21 nM | absolute IC70 [2]: 125 nM

RPMI-2650
absolute IC70 [1]: 2150 nM | absolute IC70 [2]: > 30000 nM

RPMI-8226
absolute IC70 [1]: 1580 nM | absolute IC70 [2]: > 30000 nM

RT112
absolute IC70 [1]: 42 nM | absolute IC70 [2]: > 30000 nM

RXF_393
absolute IC70 [1]: 869 nM | absolute IC70 [2]: 15100 nM

RXF_486
absolute IC70 [1]: 816 nM | absolute IC70 [2]: 239 nM

RXF_1183
absolute IC70 [1]: 949 nM | absolute IC70 [2]: 102 nM

RXF_1220
absolute IC70 [1]: 4720 nM | absolute IC70 [2]: > 30000 nM

RXF_1781
absolute IC70 [1]: 309 nM | absolute IC70 [2]: 7380 nM
